Test results: US10969390B2, “Method for evaluating efficacy of chemoradiotherapy against squamous cell carcinoma” (NATIONAL CANCER CENTER, priority 2014, dated 2021)

Experiments:
[1] = system: SIM2 stably expressing lines (KYSE510-SIM2-27 and -37, TE8-SIM2-2 and -3, T.Tn-SIM2-9 and -23) of esophageal squamous cell carcinoma cell lines; experiment: anticancer-agent sensitivity test of SIM2-gene stably expressing lines, two-dimensional culturing, viable cell count (trypan blue); type: cell-based; conditions: for sensitivities to anticancer agents of SIM2 stably expressing lines in comparison with control-vector introduced lines: two-dimensional culture, 3 days, CDDP 2, 5, 10 μM, 5-FU 10 μM, DTX 1 nM, versus KYSE510-Mock, TE8-Mock, T.Tn-Mock
Method: (§1) The SIM2 gene was introduced into TE8 obtained from RIKEN BRC and KYSE510 and T. Tn obtained from JCRB Cell Bank. The resultant was cultured in a medium containing 400 μg/ml of G-418 for approximately 2 weeks. The G418 resistant colonies were isolated and cultured. The SIM2 gene expression was confirmed by an RT-PCR method. Thus, SIM2-gene stably expressing lines were established. Cell lines in which only a GFP expression plasmid vector was introduced were prepared as control cell lines. To extract the total RNAs and evaluate the differentiation-inducing activities of the SIM2-gene stably expressing lines, the SIM2-gene stably expressing lines were each seeded into NanoCulture (registered trademark) Plate and then cultured with a normal medium for 3 days. The total RNA was extracted, and an RT-PCR method was performed. The cDNA was synthesized using SuperScript (registered trademark) III First-Strand Synthesis System for RT-PCR. The diluted cDNA was mixed with AccuPrime (registered trademark) Taq DNA Polymerase System (Invitrogen), primers, and nuclease-free water, and amplified using GeneAmp (registered trademark) PCR System 9700 (Applied Biosystems Inc.). The resultant was quantified and compared by agarose gel electrophoresis.
To evaluate the sensitivities of the SIM2-gene stably expressing lines to cisplatin (CDDP), 5-fluorouracil (5-FU), and docetaxel (DTX), an anticancer-agent sensitivity test was conducted. The SIM2-gene stably expressing lines were each seeded into a 6-well plate, cultured with a normal medium for 1 day, and then cultured with a normal medium or a medium supplemented with CDDP (2 μM, 5 μM, 10 μM), 5-FU (10 μM), or DTX (1 nM) for 3 days. After the chemical treatment was completed, the cells were collected using 0.25% trypsin/EDTA and stained with trypan blue. After that, the number of viable cells was counted.

[2] = system: SIM2 stably expressing lines (T.Tn-SIM2-9 and -23); experiment: cisplatin long-term sensitivity test of SIM2-gene stably expressing lines, three-dimensional culturing, viable cell count; type: cell-based; conditions: 14 days, CDDP 5×10^−6 M, T.Tn-SIM2-9 and -23 versus T.Tn-Mock
Method: as §1, with “The diluted cDNA was mixed with AccuPrime (registered trademark) Taq DNA Polymerase System (Invitrogen), primers, and nuclease-free water, and amplified using GeneAmp (registered trademark) PCR System 9700 (Applied Biosystems Inc.).” left out
To evaluate the sensitivities of the SIM2-gene stably expressing lines to CDDP long-term administration, an anticancer-agent sensitivity test was conducted employing three-dimensional culturing. […] After that, the number of viable cells was counted.

N.N.[Cl][Pt][Cl] [cisplatin]
CDDP effect in 3 days (two-dimensional culturing) ([1]; concentration near IC50, 3 days, FIG. 6): significant but small
sensitivities to anticancer agents of SIM2 stably expressing lines in comparison with control-vector introduced lines [1]: increased
sensitivities to CDDP of SIM2 stably expressing lines in comparison with control-vector introduced line [2]: remarkably increased

CC(=O)O[C@@]12CO[C@@H]1C[C@H](O)[C@@]1(C)C(=O)[C@H](O)C3=C(C)[C@@H](OC(=O)[C@H](O)[C@@H](NC(=O)OC(C)(C)C)c4ccccc4)C[C@@](O)([C@@H](OC(=O)c4ccccc4)[C@H]21)C3(C)C [docetaxel]
sensitivities to anticancer agents of SIM2 stably expressing lines in comparison with control-vector introduced lines [1]: increased

O=c1[nH]cc(F)c(=O)[nH]1 [5-fluorouracil]
sensitivities to anticancer agents of SIM2 stably expressing lines in comparison with control-vector introduced lines [1]: increased
